Bounds are passed on as bounds.

One test has as its system LNCAP-AR. The experiment in a line: Proliferation of LNCAP-AR prostate cancer cells (CCK-8). In kind it is cell-based. The settings on record: prostate cancer cell line LNCAP-AR; read-out: IC50 against LNCAP-AR. The protocol: (§1) • (1) CWR22RV1 prostate cancer cells were subcultured in cell culture medium, and well-grown cells were inoculated into 96-well plates with 80 μL per well and 1500 cells per well, and then the plate was cultured overnight at 37° C. in a 5% CO2 incubator. • (2) Drug was prepared as 30 mM of stock solution with dimethylsulfoxide (DMSO). Prior to use, the stock solution was diluted in a ratio of 1:3 with DMSO and then further diluted in a ratio of 1:3 to obtain 9 gradient concentrations. Each concentration of compound was diluted in a ratio of 1:200 with culture medium (to ensure the concentration of DMSO in the culture system was 0.1%). Two wells were set for each concentration. 20 μL of diluted compound solution was added to the cell culture well (with a final concentration of 10 μM, 3.3 μM, 1.1 μM, etc.), and then the plate was gently shaken to mix well. In addition, three negative control wells containing only cells and three blank control wells containing only culture medium (6 wells being each added with DMSO diluted in a ratio of 1:200 using 20 μL of culture medium) were included. 2. Test Results: • (1) After the plate was cultured for 6 days, 10 μL of CCK-8 was added to each well, and then the plate was continually cultured in a 5% CO2 incubator at 37° C. for 2.5 h. • (2) The absorbance (OD value) was measured at 450 nm with a microplate reader. • (3) Data were analyzed using the Dose-response-inhibition equation in the software GraphPad Prisms 6 to obtain IC50 values. 3. Experimental Results
(§2) Using the same method as in Example 2, CWR22RV1 cells were replaced with tumor cells in Table 3, and for the inhibitory activities against these tumor cells, the IC50 values (nM) of the compounds according to the present invention were tested and calculated.

A further test has as its target EP300 BRD (Homo sapiens (Human), UniProt Q09472). Nature of the test: EP300 AlphaScreen bromodomain (BRD) binding test. The procedure: (§3) CBP and EP300AlphaScreen Test:
(§4) • 1. Prepare 1× concentration of test buffer • 2. Preparation of compound
(§5) The compound was firstly diluted in a ratio of 1:1000 relative to the final concentration using a Precision automatic sampler (by 3× gradient dilution method): • 1) 50 μL of compound solution with a storage concentration of 10 mM was transferred to A2 well of a 96-well plate using an Echo automatic sampler. • 2) 30 μL of DMSO was transferred to well A1, and wells A3 to A12 with Precision™. • 3) 15 μL solution was transferred from A2 to A3 by Precision, and this operation was sequentially repeated until 15 μL solution was transferred from well A10 to well A11. Thus, a 1:3 gradient dilution was completed. • 4) The compound plate was centrifuged at a speed of 1000 r/min for one minute. • 3. Preparation of test plate
(§6) 20 nL of solution was transferred from each concentration well of the compound plate to the test plate using an Echo automatic sampler: from well A1 of the preparation plate to wells A1 and A2 of the test plate, and from well A2 of the preparation plate to wells A3 and A4 of the test plate. • 4. Binding test of bromodomain (BRD) • 1) Preparation of 2-fold solution of protein and polypeptide
(§7) The protein and polypeptide were dissolved in a 1× concentration of detection buffer. • 2) 10 μL of protein and polypeptide solution was transferred to each well in columns 3 to 24 in the test plate, and 10 μL of 1× test buffer was transferred to wells in columns 1 to 2 in the test plate as negative control. • 3) The test plate was centrifuged at a speed of 1000 r/min for one minute. • 4) The test plate was incubated at room temperature for 15 min. • 5) A 2-fold receptor and donor solution was prepared by dissolving acceptor and donor beads with one-fold test buffer. • 6) 2-fold receptor and donor solutions were transferred to the test plate.
(§8) 15 μL of acceptor and donor solution was added and light was avoided. • 7) The test plate was centrifuged at a speed of 1000 r/min for one minute and then incubated at room temperature for 60 min. • 5. The Endpoints were Read in EnSpire and Alpha Modes. • 6. Curve fitting
(§9) The experimental data was entered into an Excel document and the inhibition rate Inh % was calculated using equation (1): Inh %=(Max−Signal)/(Max−Min)×100 Equation (1): wherein, Max: control containing DMSO, Min: low control containing DMSO,
(§10) The obtained data were entered into the XL-Fit software, and the IC50 value was calculated using equation (2): Y=Bottom+(Top−Bottom)/(1+10^((Log IC50−X)×Hill Slope)) Equation (2): II. Experimental Results
(In Alpha technology, singlet oxygen from a donor bead excites a nearby acceptor bead.)

The subject of a further test is MCF-7. The experiment in a line: Proliferation of MCF-7 breast cancer cells (CCK-8). The format is cell-based. The settings on record: Homo sapiens, MCF7; breast cancer cell line MCF-7; read-out: IC50 against MCF-7. The protocol:
as §1, §2

The test system of another test is VCAP. Nature of the test: Proliferation of VCAP prostate cancer cells (CCK-8). The format is cell-based. The settings on record: Homo sapiens; prostate cancer cell line VCAP; read-out: IC50 against VCAP. The procedure: as §1, §2
For a further test, the system named is OPM-2. The experiment in a line: Proliferation of OPM-2 multiple myeloma cells (CCK-8). In kind it is cell-based. The settings on record: Homo sapiens; multiple myeloma cell line OPM-2; read-out: IC50 against OPM-2. The protocol:
as §1, §2

The target in a further test is CBP BRD (Homo sapiens (Human), UniProt Q92793). Nature of the test: CBP AlphaScreen bromodomain (BRD) binding test. The procedure:
as §3, §4, §5, §6, §7, §8, §9, §10

For another test, the system named is MOLM-16. Nature of the test: Proliferation of MOLM-16 leukemia cells (CCK-8). The format is cell-based. The settings on record: MOLM16; leukemia cell line MOLM-16; read-out: IC50 against MOLM-16. The procedure:
as §1, §2

In the next test the test system is LNCAP. The experiment in a line: Proliferation of LNCAP prostate cancer cells (CCK-8). The format is cell-based. The settings on record: Homo sapiens; prostate cancer cell line LNCAP; read-out: IC50 against LNCAP. The protocol:
as §1, §2

The subject of the next test is CWR22RV1 cells. The experiment in a line: Proliferation of prostate cancer CWR22RV1 cells (CCK-8, 6 days). In kind it is cell-based. The settings on record: CWR22Rv1, 144 h; 6 days, CCK-8; class symbols; read-out: IC50 against CWR22RV1 cells. The protocol:
as §1

Sequence of EP300 BRD (Q09472 1049-1156): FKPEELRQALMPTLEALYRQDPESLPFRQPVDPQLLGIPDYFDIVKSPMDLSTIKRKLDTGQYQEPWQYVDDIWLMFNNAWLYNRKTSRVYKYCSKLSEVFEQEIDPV
Sequence of CBP BRD (Q92793 1085-1192): as the sequence (Q09472 1049-1156) above, with S47N, I73V, Y93F, S98A counted along it

Consider `CCO[C@H]1CC[C@H](n2c([C@@H]3CCOC(=O)N3c3ccc(Cl)c(F)c3)nc3cc(-c4c(C)noc4C)ccc32)CC1` [Compound 172, (S)-3-(4-chloro-3-fluorophenyl)-4-(5-(3,5-dimethylisoxazol-4-yl)-1-((trans)-4-ethoxycyclohexyl)-1H-benzo[d]imidazol-2-yl)-1,3-oxazinane-2-one], for which the IC50 was under 500 nM in the test with LNCAP-AR; 2.1 nM at EP300 BRD; under 500 nM in the test on MCF-7; under 500 nM with VCAP; under 500 nM in the test on OPM-2; 2.3 nM at CBP BRD. Also, the IC50 with MOLM-16 is under 500 nM; with LNCAP, under 500 nM; with CWR22RV1 cells, 500 to 2000 nM.

What is called IC50 is the concentration needed to halve the response being measured.

Values taken from patent US12497392B2, “EP300/CBP inhibitor” (HINOVA PHARMACEUTICALS INC., priority 2019, dated 2025).
